Each compound was assayed against Wild-type cruzipain (Trypanosoma cruzi, UniProt P25779) (assay: Trypanosoma cruzi cruzipain peptidase activity assay (Ki)). Conditions: read-out: Ki, inhibitors of cruzain and cruzipains.
Type: biochemical
Protocol: Unless otherwise stated, all general chemicals and biochemicals were purchased from either the Sigma Chemical Company, Poole, Dorset, U.K or from Fisher Scientific UK, Loughborough, Leicestershire, U.K. Absorbance assays were carried out in flat-bottomed 96-well plates (Spectra; Greiner Bio-One Ltd., Stonehouse, Gloucestershire, U.K.) using a SpectraMax PLUS384 plate reader (Molecular Devices, Crawley, U.K.). Fluorescence high throughput assays were carried out in either 384-well microtitre plates (Corning Costar 3705 plates, Fisher Scientific) or 96-well ‘U’ bottomed Microfluor W1 microtitre plates (Thermo Labsystems, Ashford, Middlesex, U.K.). Fluorescence assays were monitored using a SpectraMax Gemini fluorescence plate reader (Molecular Devices). For substrates employing either a 7-amino-4-methylcoumarin (AMC) or a 7-amino-4-trifluoromethylcoumarin (AFC) fluorophore, assays were monitored at an excitation wavelength of 365 nm and an emission wavelength of 450 nm and the fluorescence plate reader calibrated with AMC. For substrates employing a 3-amino-benzoyl (Abz) fluorophore, assays were monitored at an excitation wavelength of 310 nm and an emission wavelength of 445 nm; the fluorescence plate reader calibrated with 3-amino-benzamide (Fluka). Unless otherwise indicated, all the peptidase substrates were purchased from Bachem UK, St Helens, Merseyside, UK. Substrates utilizing fluorescence resonance energy transfer methodology (i.e. FRET-based substrates) were synthesized at Incenta Limited using published methods (Atherton & Sheppard, Solid Phase Peptide Synthesis, IRL Press, Oxford, U.K, 1989) and employed Abz (2-aminobenzoyl) as the fluorescence donor and 3-nitro-tyrosine [Tyr(NO2)] as the fluorescence quencher (Meldal, M. and Breddam, K., Anal. Biochem, 195, 141-147, 1991). Hydroxyethylpiperazine ethanesulfonate (HEPES), tris-hydroxylmethyl aminomethane (tris) base, bis-tris-propane and all the biological detergents (e.g. CHAPS, zwittergents, etc.) were purchased from CN Biosciences UK, Beeston, Nottinghamshire, U.K. Glycerol was purchased from Amersham Pharmacia Biotech, Little Chalfont, Buckinghamshire, U.K. Stock solutions of substrate or inhibitor were made up to 10 mM in 100% dimethylsulfoxide (DMSO) (Rathburns, Glasgow, U.K.) and diluted as appropriately required. In all cases the DMSO concentration in the assays was maintained at less than 1% (vol./vol.).
Assay protocols were based on literature precedent (Table 4; Barrett, A. J., Rawlings, N. D. and Woessner, J. F., 1998, Handbook of Proteolytic Enzymes, Academic Press, London and references therein) and modified as required to suit local assay protocols. Enzyme was added as required to initiate the reaction and the activity, as judged by the change in fluorescence upon conversion of substrate to product, was monitored over time. All assays were carried out at 25±1° C.
Wild-type cruzipain, derived from Trypanosoma cruzi Dm28 epimastigotes, was obtained from Dr. Julio Scharfstein (Instituto de Biofisica Carlos Chagas Filho, Universidade Federal do Rio de Janeiro, Rio de Janeiro, Brazil). Activity assays were carried out in 100 mM sodium phosphate, pH 6.75 containing 1 mM EDTA and 10 mM L-cysteine using 2.5 nM enzyme. […] The rate of conversion of substrate to product was derived from the slope of the increase in fluorescence monitored continuously over time.
The apparent inhibition constant (Ki) for each compound was determined on the basis that inhibition was reversible and occurred by a pure-competitive mechanism. The Ki values were calculated, from the dependence of enzyme activity as a function of inhibitor concentration, by direct regression analysis (Prism v 3.02) using Equation 2 (Cornish-Bowden, A., 1995.). [formula]

Chain of Wild-type cruzipain (P25779 whole entry): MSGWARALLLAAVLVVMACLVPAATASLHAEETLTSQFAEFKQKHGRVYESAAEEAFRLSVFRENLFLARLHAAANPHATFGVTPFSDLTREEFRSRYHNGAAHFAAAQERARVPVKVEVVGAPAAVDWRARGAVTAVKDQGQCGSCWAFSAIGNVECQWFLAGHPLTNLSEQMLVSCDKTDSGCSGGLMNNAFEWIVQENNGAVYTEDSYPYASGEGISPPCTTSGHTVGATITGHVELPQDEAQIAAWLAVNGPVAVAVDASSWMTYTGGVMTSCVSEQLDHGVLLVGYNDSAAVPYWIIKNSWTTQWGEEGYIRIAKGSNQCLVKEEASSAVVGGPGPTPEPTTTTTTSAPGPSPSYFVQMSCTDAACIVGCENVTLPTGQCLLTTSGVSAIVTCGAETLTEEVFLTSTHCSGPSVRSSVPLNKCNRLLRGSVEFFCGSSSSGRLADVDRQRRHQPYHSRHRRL

Ki, < 5 µM:
CC(C)C[C@H](NC(=O)c1ccc(C(C)(C)C)cc1)C(=O)N1CC[C@@H]2[C@H]1C(=O)CN2C(=O)c1ccc2c(c1)OCCO2 [Example 30, (3aR,6aS)-4-tert-Butyl-N-{(1S)-1-[4-(2,3-dihydro-benzo[1,4]dioxine-6-carbonyl)-6-oxo-hexahydro-pyrrolo[3,2-b]pyrrole-1-carbonyl]-3-methyl-butyl}-benzamide]
CC(C)(C)c1ccc(C(=O)N[C@@H](Cc2cccs2)C(=O)N2CC[C@@H]3[C@H]2C(=O)CN3C(=O)c2cccnc2)cc1 [Example 23, (3aR,6aS)-4-tert-Butyl-N-{(1S)-2-oxo-2-[6-oxo-4-(pyridine-3-carbonyl)-hexahydro-pyrrolo[3,2-b]pyrrole-1-yl]-1-thiophen-2-ylmethyl-ethyl}-benzamide]
O=C(N[C@@H](Cc1ccc(O)cc1)C(=O)N1CC[C@@H]2[C@H]1C(=O)CN2C(=O)c1ccccc1)c1ccccc1 [Example 333, (3aR,6aS)-N-[(1S)-2-(4-Benzoyl-6-oxo-hexahydro-pyrrolo[3,2-b]pyrrol-1-yl)-1-(4-hydroxy-benzyl)-2-oxo-ethyl]-benzamide]
CCC[C@H](N)C(=O)N1CC(=O)[C@@H]2[C@H]1CCN2C(=O)[C@H](CC(C)C)NC(=O)c1ccc(N(C)C)cc1 [Example 210, (3aR,6aS)-N-{(1S)-1-[4-((2S)-2-Amino-pentanoyl)-6-oxo-hexahydro-pyrrolo[3,2-b]pyrrole-1-carbonyl]-3-methyl-butyl}-4-dimethylamino-benzamide]
CC(C)C[C@H](NC(=O)c1ccc(C(C)(C)C)cc1)C(=O)N1CC[C@@H]2[C@H]1C(=O)CN2C(=O)c1ccccc1Cc1ccccc1 [Example 36, (3aR,6aS)-N-{(1S)-1-[4-(2-Benzyl-benzoyl)-6-oxo-hexahydro-pyrrolo[3,2-b]pyrrole-1-carbonyl]-3-methyl-butyl}-4-tert-butyl-benzamide]
CC(C)C[C@H](NC(=O)c1ccc(N(C)C)cc1)C(=O)N1CC[C@@H]2[C@H]1C(=O)CN2C(=O)C1CCNCC1 [Example 242, (3aR,6aS)-4-Dimethylamino-N-{(1S)-3-methyl-1-[6-oxo-4-(piperidine-4-carbonyl)-hexahydro-pyrrolo[3,2-b]pyrrole-1-carbonyl]-butyl}-benzamide]
CNCC(=O)N1CC(=O)[C@@H]2[C@H]1CCN2C(=O)[C@H](CC(C)C)NC(=O)c1ccc(N(C)C)cc1 [Example 200, (3aR,6aS)-4-Dimethylamino-N-{(1S)-3-methyl-1-[4-(2-methylamino-acetyl)-6-oxo-hexahydro-pyrrolo[3,2-b]pyrrole-1-carbonyl]-butyl}-benzamide]
O=C(N[C@@H](Cc1ccc(O)cc1)C(=O)N1CC[C@@H]2[C@H]1C(=O)CN2C(=O)c1ccccc1)c1cccnc1 [Example 336, (3aR,6aS)-N-[(1S)-2-(4-Benzoyl-6-oxo-hexahydro-pyrrolo[3,2-b]pyrrol-1-yl)-1-(4-hydroxy-benzyl)-2-oxo-ethyl]-nicotinamide]
O=C(N[C@@H](Cc1ccc(O)cc1)C(=O)N1CC[C@@H]2[C@H]1C(=O)CN2C(=O)c1ccccc1)c1cccc(OC(F)(F)F)c1 [Example 339, (3aR,6aS)-N-[(1S)-2-(4-Benzoyl-6-oxo-hexahydro-pyrrolo[3,2-b]pyrrol-1-yl)-1-(4-hydroxy-benzyl)-2-oxo-ethyl]-3-trifluoromethoxy-benzamide]
CN(C)c1ccc(C(=O)N[C@@H](Cc2ccc(O)cc2)C(=O)N2CC[C@@H]3[C@H]2C(=O)CN3C(=O)c2cccc(F)c2)cc1 [Example 322]
CC(C)C[C@H](NC(=O)c1ccc(N(C)C)cc1)C(=O)N1CC[C@@H]2[C@H]1C(=O)CN2C(=O)c1ccccn1 [Example 79, (3aR,6aS)-4-Dimethylamino-N-{(1S)-3-methyl-1-[6-oxo-4-(pyridine-2-carbonyl)-hexahydro-pyrrolo[3,2-b]pyrrole-1-carbonyl]-butyl}-benzamide]
CC(C)C[C@H](NC(=O)c1ccc(N(C)C)cc1)C(=O)N1CC[C@@H]2[C@H]1C(=O)CN2C(=O)c1ccc(O)cc1 [Example 49, (3aR,6aS)-4-Dimethylamino-N-{(1S)-1-[4-(4-hydroxy-benzoyl)-6-oxo-hexahydro-pyrrolo[3,2-b]pyrrole-1-carbonyl]-3-methyl-butyl}-benzamide]
O=C(N[C@@H](Cc1ccc(O)cc1)C(=O)N1CC[C@@H]2[C@H]1C(=O)CN2C(=O)c1cccs1)c1cccc(Br)c1 [Example 324, (3aR,6aS)-3-Bromo-N-{(1S)-1-(4-hydroxy-benzyl)-2-oxo-2-[6-oxo-4-(thiophene-2-carbonyl)-hexahydro-pyrrolo[3,2-b]pyrrol-1-yl]-ethyl}-benzamide]
CC(C)C[C@H](NC(=O)c1ccc(N(C)C)cc1)C(=O)N1CC[C@@H]2[C@H]1C(=O)CN2C(=O)c1ccccc1OC(F)(F)F [Example 168, (3aR,6aS)-4-Dimethylamino-N-{(1S)-3-methyl-1-[6-oxo-4-(2-trifluoromethoxy-benzoyl)-hexahydro-pyrrolo[3,2-b]pyrrole-1-carbonyl]-butyl}-benzamide]
O=C(N[C@@H](Cc1ccc(O)cc1)C(=O)N1CC[C@@H]2[C@H]1C(=O)CN2C(=O)c1ccc2ccccc2c1)c1cccc2ccccc12 [Example 302, (3aR,6aS)-Naphthalene-1-carboxylic acid {(1S)-1-(4-hydroxy-benzyl)-2-[4-(naphthalene-2-carbonyl)-6-oxo-hexahydro-pyrrolo[3,2-b]pyrrol-1-yl]-2-oxo-ethyl}-amide]
CC(C)C[C@H](NC(=O)c1ccc(N(C)C)cc1)C(=O)N1CC[C@@H]2[C@H]1C(=O)CN2C(=O)CC1CCNCC1 [Example 240]
CN(C)c1ccc(C(=O)N[C@@H](Cc2ccc(O)cc2)C(=O)N2CC[C@@H]3[C@H]2C(=O)CN3C(=O)c2cccc([N+](=O)[O-])c2)cc1 [Example 321, (3aR,6aS)-4-Dimethylamino-N-{(1S)-1-(4-hydroxy-benzyl)-2-[4-(3-nitro-benzoyl)-6-oxo-hexahydro-pyrrolo[3,2-b]pyrrole-1-yl]-2-oxo-ethyl}-benzamide]
COC(=O)NCC(=O)N1CC(=O)[C@@H]2[C@H]1CCN2C(=O)[C@H](CC(C)C)NC(=O)c1ccc(N(C)C)cc1 [Example 183, (3aS,6aR)-(2-{4-[(2S)-2-(4-Dimethylamino-benzoylamino)-4-methyl-pentanoyl]-3-oxo-hexahydro-pyrrolo[3,2-b]pyrrole-1-yl}-2-oxo-ethyl)-carbamic acid methyl ester]
CC(C)(C)c1ccc(C(=O)N[C@@H](Cc2cccs2)C(=O)N2CC[C@@H]3[C@H]2C(=O)CN3C(=O)c2ccccc2)cc1 [Example 22, (3aR,6aS)-N-[(1S)-2-(4-Benzoyl-6-oxo-hexahydro-pyrrolo[3,2-b]pyrrol-1-yl)-2-oxo-1-thiophen-2-ylmethyl-ethyl]-4-tert-butyl-benzamide]
CC(C)C[C@H](NC(=O)c1ccc(N(C)C)cc1)C(=O)N1CC[C@@H]2[C@H]1C(=O)CN2C(=O)[C@@H]1CCCN1 [Example 156, (3aR,6aS)-4-Dimethylamino-N-{(1S)-3-methyl-1-[6-oxo-4-((2S)-pyrrolidine-2-carbonyl)-hexahydro-pyrrolo[3,2-b]pyrrole-1-carbonyl]-butyl}-benzamide]
O=C(N[C@@H](Cc1ccc(F)cc1)C(=O)N1CC[C@@H]2[C@H]1C(=O)CN2C(=O)c1ccccc1)c1cccc(Br)c1 [Example 344, (3aR,6aS)-N-[(1S)-2-(4-Benzoyl-6-oxo-hexahydro-pyrrolo[3,2-b]pyrrol-1-yl)-1-(4-fluoro-benzyl)-2-oxo-ethyl]-3-bromo-benzamide]

From patent US20060100431A1, “Biologically active compounds” (Amura Therapeutics Limited, priority 2002, published 2006)
